Values joined by “and” are separate entries in the source; they are usually repeats but may differ in a detail not shown here. Equal values may be shown once. Inconclusive results and toxic doses are left out. No stated cut-off is given here; in the data, active means T/C of 150% or more; inactive means T/C below 125%.
Test system: L1210 leukemia ip in BDF1 mice, survival T/C
Experiment: NCI In Vivo Anticancer Drug Screen. Data for tumor model L1210 Leukemia (intraperitoneal) in B6D2F1 (BDF1) mice
Details: endpoint: mean survival time, higher = longer survival
Procedure, shortened: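 Antitumor effect is assessed in tumor-bearing animals. Survival in the compound arm is compared with a vehicle-dosed control arm and expressed as their quotient.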

[1] = dose: 100.0 mg/kg/injection, schedule: Q01DX009 (ip), vehicle: Klucel (hydroxypropylcellulose) (HPC)
[2] = dose: 200.0 mg/kg/injection, schedule: Q01DX009 (ip), vehicle: Klucel (hydroxypropylcellulose) (HPC)
[3] = dose: 400.0 mg/kg/injection, schedule: Q01DX009 (ip), vehicle: Klucel (hydroxypropylcellulose) (HPC)
[4] = dose: 100.0 mg/kg/injection, schedule: Q01DX001 (ip), vehicle: saline
[5] = dose: 100.0 mg/kg/injection, schedule: Q04DX002 (ip), vehicle: Klucel (hydroxypropylcellulose) (HPC)
[6] = dose: 200.0 mg/kg/injection, schedule: Q04DX002 (ip), vehicle: Klucel (hydroxypropylcellulose) (HPC)
[7] = dose: 400.0 mg/kg/injection, schedule: Q04DX002 (ip), vehicle: Klucel (hydroxypropylcellulose) (HPC)
[8] = dose: 25.0 mg/kg/injection, schedule: Q01DX009 (ip), vehicle: saline with Tween-80
[9] = dose: 50.0 mg/kg/injection, schedule: Q01DX009 (ip), vehicle: saline with Tween-80
[10] = dose: 100.0 mg/kg/injection, schedule: Q04DX003 (ip), vehicle: saline with Tween-80
[11] = dose: 200.0 mg/kg/injection, schedule: Q04DX003 (ip), vehicle: saline with Tween-80
[12] = dose: 100.0 mg/kg/injection, schedule: Q04DX003 (ip), vehicle: Klucel (hydroxypropylcellulose) (HPC)
[13] = dose: 200.0 mg/kg/injection, schedule: Q04DX003 (ip), vehicle: Klucel (hydroxypropylcellulose) (HPC)
[14] = dose: 400.0 mg/kg/injection, schedule: Q04DX003 (ip), vehicle: Klucel (hydroxypropylcellulose) (HPC)
[15] = dose: 50.0 mg/kg/injection, schedule: Q01DX009 (ip), vehicle: Klucel (hydroxypropylcellulose) (HPC)
[16] = dose: 200.0 mg/kg/injection, schedule: Q01DX001 (ip), vehicle: saline
[17] = dose: 400.0 mg/kg/injection, schedule: Q01DX001 (ip), vehicle: saline
[18] = dose: 75.0 mg/kg/injection, schedule: Q01DX001 (ip), vehicle: saline

Measured: T/C

CN(C)C1C(=O)C(C(=O)NCNC(CCS)C(=O)O)=C(O)C2(O)C(=O)C3=C(O)c4c(O)cccc4C(C)(O)C3CC12 (stereo not drawn)
inactive: dose: 20.0 mg/kg/injection, schedule: Q01DX Z (ip), vehicle: saline 104 % of control | dose: 40.0 mg/kg/injection, schedule: Q01DX Z (ip), vehicle: saline 98 % of control | dose: 80.0 mg/kg/injection, schedule: Q01DX Z (ip), vehicle: saline 96 % of control and 100 % of control | dose: 160.0 mg/kg/injection, schedule: Q01DX Z (ip), vehicle: saline 98 % of control and 101 % of control | dose: 320.0 mg/kg/injection, schedule: Q01DX Z (ip), vehicle: saline 100 % of control

Cc1ccc(N=Nc2ccc(N(C)C)cc2)cc1
inactive: [1] 90 % of control | [2] 92 % of control | [3] 90 % of control

COC(=O)c1ccc(C)cn1
inactive: [4] 100 % of control

CCN(CC)Cc1ccccc1COC(=O)c1ccc(Br)cc1
inactive: [5] 101 % of control | [6] 108 % of control | [7] 101 % of control

CCCCCCC(O)C[N+](=O)[O-] (stereo not drawn)
inactive: dose: 12.5 mg/kg/injection, schedule: Q01DX009 (ip), vehicle: saline with Tween-80 100 % of control | [8] 98 % of control | [9] 93 % of control | [10] 107 % of control | [11] 86 % of control

c1ccc(C2(c3ccccc3)CC([P+](c3ccccc3)(c3ccccc3)c3ccccc3)N=N2)cc1 (stereo not drawn)
inactive: dose: 10.0 mg/kg/injection, schedule: Q01DX001 (ip), vehicle: saline 103 % of control | dose: 20.0 mg/kg/injection, schedule: Q01DX001 (ip), vehicle: saline 111 % of control | dose: 40.0 mg/kg/injection, schedule: Q01DX001 (ip), vehicle: saline 112 % of control

NCOC(=O)Cc1ccc(Br)cc1
inactive: [1] 98 % of control | [12] 96 % of control | [2] 101 % of control | [13] 101 % of control | [3] 96 % of control | [14] 101 % of control

O=[N+]([O-])c1ccc(Oc2ccc[n+]([O-])c2)c([N+](=O)[O-])c1
inactive: [15] 102 % of control | [1] 102 % of control | [10] 96 % of control

CN(CS(=O)(=O)O)c1cc(F)cc(F)c1
inactive: dose: 50.0 mg/kg/injection, schedule: Q01DX001 (ip), vehicle: saline 102 % of control | [4] 102 % of control | [16] 98 % of control | [17] 98 % of control

O=C(Nc1cnc2ccccc2c1)Nc1cnc2ccccc2c1
inactive: dose: 87.5 mg/kg/injection, schedule: Q01DX009 (ip), vehicle: Klucel (hydroxypropylcellulose) (HPC) 87 % of control | dose: 175.0 mg/kg/injection, schedule: Q01DX009 (ip), vehicle: Klucel (hydroxypropylcellulose) (HPC) 97 % of control | dose: 350.0 mg/kg/injection, schedule: Q01DX009 (ip), vehicle: Klucel (hydroxypropylcellulose) (HPC) 89 % of control

S=c1[nH][nH]c(=S)s1
inactive: dose: 12.5 mg/kg/injection, schedule: Q01DX009 (ip), vehicle: Klucel (hydroxypropylcellulose) (HPC) 92 % of control | dose: 25.0 mg/kg/injection, schedule: Q01DX009 (ip), vehicle: Klucel (hydroxypropylcellulose) (HPC) 95 % of control | [15] 90 % of control | dose: 50.0 mg/kg/injection, schedule: Q01DX009 (ip), vehicle: saline 97 % of control | [1] 101 % of control | dose: 100.0 mg/kg/injection, schedule: Q01DX009 (ip), vehicle: saline 97 % of control

CNNC(=O)Cc1ccccc1
inactive: dose: 100.0 mg/kg/injection, schedule: Q01DX001 (ip), vehicle: other 92 % of control | dose: 200.0 mg/kg/injection, schedule: Q01DX001 (ip), vehicle: other 108 % of control | dose: 400.0 mg/kg/injection, schedule: Q01DX001 (ip), vehicle: other 108 % of control

NNC(=O)c1cc(N)nc(Cl)c1
inactive: [4] 96 % of control | [16] 96 % of control | [17] 98 % of control

CC12CCC(=O)C=C1CC(Sc1ccc(N(CCCl)CCCl)cc1)C1C2CCC2(C)C(O)CCC12 (stereo not drawn)
inactive: dose: 100.0 mg/kg/injection, schedule: Q01DX001 (sc), vehicle: steriod suspending solution 108 % of control | dose: 200.0 mg/kg/injection, schedule: Q01DX001 (sc), vehicle: steriod suspending solution 108 % of control | dose: 400.0 mg/kg/injection, schedule: Q01DX001 (sc), vehicle: steriod suspending solution 100 % of control

COC(=O)c1c2c(nc3ccccc13)-c1ccccc1C(C)(C)C2Br (stereo not drawn)
inactive: [12] 95 % of control | [13] 92 % of control | [14] 95 % of control

O=C(COCC(=O)N/N=C/C=C/c1ccccc1)N/N=C/C=C/c1ccccc1
inactive: [1] 96 % of control | [2] 104 % of control | [3] 95 % of control

CCCCc1ccc(OCCBr)cc1
inactive: dose: 100.0 mg/kg/injection, schedule: Q01DX009 (ip), vehicle: saline sonified 102 % of control | [12] 95 % of control | dose: 200.0 mg/kg/injection, schedule: Q01DX009 (ip), vehicle: saline sonified 98 % of control | [13] 103 % of control | dose: 400.0 mg/kg/injection, schedule: Q01DX009 (ip), vehicle: saline sonified 95 % of control | [14] 101 % of control

CCC(C)(C)c1ccc(OCCCCCCN2CCN(c3ccc(C)c(Cl)c3)CC2)cc1
inactive: [18] 102 % of control | dose: 150.0 mg/kg/injection, schedule: Q01DX001 (ip), vehicle: saline 110 % of control

O=S(=O)(CCCl)c1ccccc1
inactive: [12] 103 % of control | [10] 92 % of control | [13] 97 % of control | [11] 92 % of control | [14] 94 % of control | dose: 400.0 mg/kg/injection, schedule: Q04DX003 (ip), vehicle: saline with Tween-80 97 % of control

CSc1nc(SC)c2[nH]cnc2n1
inactive: [1] 100 % of control | [2] 105 % of control | [3] 98 % of control

C=C(Cl)c1c(C)cc(C)cc1C
inactive: [8] 98 % of control | [9] 104 % of control | dose: 100.0 mg/kg/injection, schedule: Q01DX009 (ip), vehicle: saline with Tween-80 98 % of control and 88 % of control | [10] 97 % of control | [11] 86 % of control

CC(C)c1ccccc1O
inactive: [12] 94 % of control | [13] 95 % of control | [14] 90 % of control

Cc1ccc(C(C)C)c2sc(=N)oc12
inactive: [12] 104 % of control | [13] 103 % of control | [14] 98 % of control

O=C(O)COc1nc(Cl)c(Cl)cc1Cl
inactive: [5] 107 % of control | [6] 104 % of control

CC(=O)OCC(O)C(O)C(O)C(O)C=O (stereo not drawn) (tested in a mixture with another compound)
inactive: [5] 92 % of control | [6] 103 % of control | [7] 95 % of control

CC(=O)c1cccc(N2C(=O)CC(=P(c3ccccc3)(c3ccccc3)c3ccccc3)C2=O)c1
inactive: [18] 93 % of control

CC(=O)OCC1OC(N2C(=O)/C(=C/c3ccc(N(C)C)cc3)SC2=S)C(OC(C)=O)C(OC(C)=O)C1OC(C)=O (stereo not drawn)
inactive: dose: 25.0 mg/kg/injection, schedule: Q01DX005 (ip), vehicle: other 100 % of control | dose: 50.0 mg/kg/injection, schedule: Q01DX005 (ip), vehicle: other 98 % of control | dose: 100.0 mg/kg/injection, schedule: Q01DX005 (ip), vehicle: other 94 % of control | dose: 200.0 mg/kg/injection, schedule: Q01DX005 (ip), vehicle: other 95 % of control | dose: 400.0 mg/kg/injection, schedule: Q01DX005 (ip), vehicle: other 93 % of control

Oc1c(O)c(Cl)c(Cl)c(Cl)c1Cl
inactive: dose: 12.5 mg/kg/injection, schedule: Q04DX003 (ip), vehicle: saline 97 % of control | dose: 25.0 mg/kg/injection, schedule: Q04DX003 (ip), vehicle: saline 95 % of control | dose: 50.0 mg/kg/injection, schedule: Q04DX003 (ip), vehicle: saline 98 % of control

CSC(Cl)=C(Cl)Cl
inactive: dose: 25.0 mg/kg/injection, schedule: Q04DX003 (ip), vehicle: saline with Tween-80 101 % of control | dose: 50.0 mg/kg/injection, schedule: Q04DX003 (ip), vehicle: saline with Tween-80 101 % of control | [4] 90 % of control | [10] 97 % of control

Reference: PubChem BioAssay AID248 (DTP/NCI, 2004)
